Our source for the Activity and inhibition values is ChEMBL document CHEMBL5528002, “Identification of selective 5-LOX and FLAP inhibitors as novel anti-inflammatory agents by ligand-based virtual screening” (Eur J Med Chem, 2024).

The structures appear in SMILES notation. Calls of active or inactive are those of the source. The calls are words filed in the database; no cut-off is given here.

Data set [1] relates to Macrophage cell line. Nature of the data set: Effect on lipid mediator formation in human M1-like phenotype MDM cells by measuring LTB4 formation at 10 uM pre-incubated for 15 mins followed by SACM stimulation and measured after 90 mins by UPLC-MS/MS analysis relative to control. The format is functional. Particulars: time 105 min, 1.75 h.
Data set [2] relates to Macrophage cell line. Nature of the data set: Effect on lipid mediator formation in human M2-like phenotype MDM cells by measuring RvD5 formation at 10 uM pre-incubated for 15 mins followed by SACM stimulation and measured after 90 mins by UPLC-MS/MS analysis relative to control. The format is functional. Particulars: time 105 min, 1.75 h.
In another data set the test system is Neutrophil. Nature of the data set: Inhibition of ROS production in PMA-induced human Neutrophil cells at 10 uM incubated for 10 mins by DCFH-DA dye based fluorometric assay. Type of data set: functional, cell-based.
Data set [3] deals with Macrophage cell line. The data set can be described thus: Effect on lipid mediator formation in human M2-like phenotype MDM cells by measuring arachidonic acid formation at 10 uM pre-incubated for 15 mins followed by SACM stimulation and measured after 90 mins by UPLC-MS/MS analysis (reference value: 92007 +/- 4892 pg/ml). The format is functional. The conditions noted are these: time 105 min, 1.75 h.

Data set [4] deals with Macrophage cell line. Nature of the data set: Effect on lipid mediator formation in human M2-like phenotype MDM cells by measuring MaR2 formation at 10 uM pre-incubated for 15 mins followed by SACM stimulation and measured after 90 mins by UPLC-MS/MS analysis relative to control. Type of data set: functional. Particulars: time 105 min, 1.75 h.
Data set [5] has as its system Macrophage cell line. Nature of the data set: Effect on lipid mediator formation in human M1-like phenotype MDM cells by measuring 12-HEPE formation at 10 uM pre-incubated for 15 mins followed by SACM stimulation and measured after 90 mins by UPLC-MS/MS analysis (reference value: 40 +/- 9 pg/ml). The format is functional. Particulars: time 105 min, 1.75 h.
Data set [6] relates to Macrophage cell line. Nature of the data set: Effect on lipid mediator formation in human M2-like phenotype MDM cells by measuring 15-HETE formation at 10 uM pre-incubated for 15 mins followed by SACM stimulation and measured after 90 mins by UPLC-MS/MS analysis relative to control. Type of data set: functional. The conditions noted are these: time 105 min, 1.75 h.
For data set [7], the system named is Macrophage cell line. Nature of the data set: Effect on lipid mediator formation in human M2-like phenotype MDM cells by measuring 5-HEPE formation at 10 uM pre-incubated for 15 mins followed by SACM stimulation and measured after 90 mins by UPLC-MS/MS analysis relative to control. The format is functional. Particulars: time 105 min, 1.75 h.
The subject of data set [8] is Macrophage cell line. Nature of the data set: Effect on lipid mediator formation in human M1-like phenotype MDM cells by measuring t-LTB4 formation at 10 uM pre-incubated for 15 mins followed by SACM stimulation and measured after 90 mins by UPLC-MS/MS analysis relative to control. Type of data set: functional. Particulars: time 105 min, 1.75 h.
In data set [9] the test system is Macrophage cell line. Nature of the data set: Effect on lipid mediator formation in human M1-like phenotype MDM cells by measuring 5,15-diHETE formation at 10 uM pre-incubated for 15 mins followed by SACM stimulation and measured after 90 mins by UPLC-MS/MS analysis (reference value: 122 +/- 58 pg/ml). Type of data set: functional. Particulars: time 105 min, 1.75 h.

Data set [10] has as its system Macrophage cell line. The data set can be described thus: Effect on lipid mediator formation in human M1-like phenotype MDM cells by measuring EPA formation at 10 uM pre-incubated for 15 mins followed by SACM stimulation and measured after 90 mins by UPLC-MS/MS analysis (reference value: 20261 +/- 1404 pg/ml). Particulars: time 105 min, 1.75 h. Type of data set: functional.

Data set [11] has as its system Macrophage cell line. Nature of the data set: Effect on lipid mediator formation in human M1-like phenotype MDM cells by measuring PGD2 formation at 10 uM pre-incubated for 15 mins followed by SACM stimulation and measured after 90 mins by UPLC-MS/MS analysis relative to control. Type of data set: functional. The conditions noted are these: time 105 min, 1.75 h.
Data set [12] relates to Macrophage cell line. Nature of the data set: Effect on lipid mediator formation in human M2-like phenotype MDM cells by measuring t-LTB4 formation at 10 uM pre-incubated for 15 mins followed by SACM stimulation and measured after 90 mins by UPLC-MS/MS analysis relative to control. Type of data set: functional. Particulars: time 105 min, 1.75 h.
In data set [13] the test system is Macrophage cell line. The data set can be described thus: Effect on lipid mediator formation in human M2-like phenotype MDM cells by measuring DHA formation at 10 uM pre-incubated for 15 mins followed by SACM stimulation and measured after 90 mins by UPLC-MS/MS analysis (reference value: 50400 +/- 3051 pg/ml). The format is functional. The conditions noted are these: time 105 min, 1.75 h.

The test system of data set [14] is Macrophage cell line. The data set can be described thus: Effect on lipid mediator formation in human M2-like phenotype MDM cells by measuring 14-HDHA formation at 10 uM pre-incubated for 15 mins followed by SACM stimulation and measured after 90 mins by UPLC-MS/MS analysis (reference value: 1517 +/- 298 pg/ml). The format is functional. The conditions noted are these: time 105 min, 1.75 h.

The test system of another data set is Macrophage. Nature of the data set: Cytotoxicity against human MDM cells assessed as reduction in cell viability at 10 uM incubated for 24 hrs by MTT assay. Particulars: macrophage cell line. The format is toxicity, cell-based. For orientation: Tetrazolium dyes change colour on reduction, which living cells bring about.
Data set [15] relates to Macrophage cell line. The data set can be described thus: Effect on lipid mediator formation in human M1-like phenotype MDM cells by measuring TXB2 formation at 10 uM pre-incubated for 15 mins followed by SACM stimulation and measured after 90 mins by UPLC-MS/MS analysis relative to control. Type of data set: functional. The conditions noted are these: time 105 min, 1.75 h.

For data set [16], the system named is Macrophage cell line. Nature of the data set: Effect on lipid mediator formation in human M2-like phenotype MDM cells by measuring 17-HDHA formation at 10 uM pre-incubated for 15 mins followed by SACM stimulation and measured after 90 mins by UPLC-MS/MS analysis (reference value: 4702 +/- 885 pg/ml). The format is functional. Particulars: time 105 min, 1.75 h.

In data set [17] the test system is Macrophage cell line. Nature of the data set: Effect on lipid mediator formation in human M2-like phenotype MDM cells by measuring 12-HEPE formation at 10 uM pre-incubated for 15 mins followed by SACM stimulation and measured after 90 mins by UPLC-MS/MS analysis relative to control. Type of data set: functional. Particulars: time 105 min, 1.75 h.
Data set [18] concerns Macrophage cell line. Nature of the data set: Effect on lipid mediator formation in human M2-like phenotype MDM cells by measuring DHA formation at 10 uM pre-incubated for 15 mins followed by SACM stimulation and measured after 90 mins by UPLC-MS/MS analysis relative to control. Particulars: time 105 min, 1.75 h. Type of data set: functional.
Data set [19] concerns the target T1, Prostaglandin E synthase (Homo sapiens) (UniProt O14684).
T1 sequence (whole entry): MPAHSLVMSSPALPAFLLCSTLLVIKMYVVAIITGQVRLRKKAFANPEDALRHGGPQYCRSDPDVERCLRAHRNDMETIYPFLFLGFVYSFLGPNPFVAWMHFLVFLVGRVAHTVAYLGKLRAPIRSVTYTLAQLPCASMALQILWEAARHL
The data set can be described thus: Inhibition of human mPGES-1 assessed as enzyme remaining activity at 10 uM relative to control.

For data set [20], the system named is Macrophage cell line. Nature of the data set: Effect on lipid mediator formation in human M2-like phenotype MDM cells by measuring PDX1 formation at 10 uM pre-incubated for 15 mins followed by SACM stimulation and measured after 90 mins by UPLC-MS/MS analysis (reference value: 13 +/- 3 pg/ml). Type of data set: functional. The conditions noted are these: time 105 min, 1.75 h.

With `Oc1ccc(CCC2CCC(c3ccc(O)cc3)CO2)cc1` (centres undefined), the Activity with Macrophage cell line [1] was found to be 6%; in the data set on Macrophage cell line [2], 105%; in the data set on Macrophage cell line [3] it was 103809 pg/mL; in the data set on Macrophage cell line [4], 191%; in the data set on Macrophage cell line [5], 36 pg/mL; in the data set with Macrophage cell line [6], 144%. The Activity was found to be 34% in the data set with Macrophage cell line [7]; 8% in the data set with Macrophage cell line [8]; 37 pg/mL with Macrophage cell line [9]; 22962 pg/mL in the data set with Macrophage cell line [10]; 88% with Macrophage cell line [11]; 20% with Macrophage cell line [12]. For the same molecule, the Activity is 53713 pg/mL in the data set on Macrophage cell line [13]; 2101 pg/mL with Macrophage cell line [14]; “Non-Toxic” in the data set on Macrophage; 94% in the data set with Macrophage cell line [15]; 6992 pg/mL in the data set on Macrophage cell line [16]; 128% in the data set with Macrophage cell line [17]. The Activity worked out at 107% in the data set with Macrophage cell line [18], 80.3% in data set [19] and 15 pg/mL in the data set on Macrophage cell line [20]. Further, the inhibition result in the data set with Neutrophil is “inactive”.

Turning to `COc1ccc(C2=C/C(=C/c3ccc(O)cc3O)C(=O)O2)cc1`, the Activity in the data set with Macrophage cell line [1] worked out at 8%; in the data set on Macrophage cell line [2] it was 167%; with Macrophage cell line [3], 94519 pg/mL; in the data set on Macrophage cell line [4] it was 219%; in the data set on Macrophage cell line [5], 37 pg/mL; in the data set on Macrophage cell line [6], 136%. The Activity worked out at 18% with Macrophage cell line [7]; 8% in the data set with Macrophage cell line [8]; 16 pg/mL in the data set with Macrophage cell line [9]; 27649 pg/mL in the data set on Macrophage cell line [10]; 157% in the data set on Macrophage cell line [11]; 11% in the data set on Macrophage cell line [12]. For the same molecule, the Activity was 53610 pg/mL in the data set with Macrophage cell line [13]; 2718 pg/mL in the data set with Macrophage cell line [14]; “Non-Toxic” with Macrophage; 94% in the data set on Macrophage cell line [15]; 8152 pg/mL with Macrophage cell line [16]; 144% in the data set with Macrophage cell line [17]. In addition, the Activity in the data set with Macrophage cell line [18] was 106%; in data set [19], 89.3%; with Macrophage cell line [20], 18 pg/mL. Also, in the data set on Neutrophil, the inhibition entry is “inactive”.
